According to patent US7128897B2, “Aerosolized anti-infectives, anti-inflammatories, and decongestants for the treatment of sinusitis” (Naryx Pharma, Inc., priority 1999, dated 2006):

How the values were obtained:
sinus infection = test: Nebulized antibiotic treatment of sinusitis patients (case reports, Patients A, B, C); assay type: in vivo, human; details: for time to "dumping" of green, purulent nasal discharge: nebulized three times daily
Method: Thereafter, a preparation of tobramycin 80 mg/ml was administered using 3 ml in a Pari LC Star® nebulizer cup with adult mask attached and a Pari Proneb® compressor. The medication was nebulized three (3) times daily. After four days of therapy, the patient experienced a “dumping” of green, purulent nasal discharge. The therapy was continued for a total of seven (7) days. […] Another seven (7) day regimen of nebulized tobramycin was given to the patient.
A preparation of cefuroxime 285 mg in 2.5 ml sterile water for injection was administered three (3) times daily using a Pari LC Star® nebulizer cup with adult mask attached and a Pari Proneb® compressor. […] After one day of therapy, a Pari Turbo® compressor was substituted for the Pari Proneb® compressor. The patient experienced a “dumping” of green, purulent nasal discharge after (3) days of therapy.
After the seven (7) days of treatment with nebulized cefuroxime using the Pari Turbo® compressor and the Pari LC Star® nebulizer cup with mask, the patient has remained free of sinus infections for nine (9) months. They have continued to experience problems with their allergies, and while in the past these allergies triggered sinus infections, this time no such infection has recurred.
A person had been experiencing sinus infections off and on during their adult life. They were treated with cefuroxime 285 mg in 2.5 ml of sterile water for injection three (3) times daily using a Pari LC Star® nebulizer cup with adult mask attached and a Pari Turbo® compressor. The patient experienced a “dumping” of green, purulent nasal discharge after eight (8) treatments. The therapy was continued for a total of seven (7) days. No other antibiotics were given. This patient has been free from sinus infections for six (6) months.
They were treated with cefuroxime 285 mg in 2.5 ml of sterile water for injection three (3) times daily using a Pari LC Star® nebulizer cup with adult mask attached and a Pari Turbo® compressor. The patient experienced a “dumping” of green, purulent nasal discharge after eight (8) treatments. The therapy was continued form a total of seven (7) days. No other antibiotics were given. This patient has been free from sinus infections for six (6) months.

refractory sinusitis = details: large particle saline aerosol therapy with tobramycin added; cited from earlier work
sinusitis = assay type: in vivo, human; details: for efficacy of nose drop: nose drop (tobramycin 80 mg/ml; Mupirocin calcium 2%)
Method: A person had been suffering from sinusitis for most of their adult life. These sinusitis episodes seemed to be triggered by allergies. They historically had three-four (3–4) episodes of sinusitis each year, which were treated with oral antibiotics for four-eight (4–8) weeks per episode. These oral antibiotic regimens produced yeast infections, which were treated with Diflucan® (fluconazole). Relief from the headaches, malaise, facial pressure and pain, yellow-green nasal discharge, coughing and fever took up to six weeks and were treated with narcotic and non narcotic analgesics, decongestants, decongestant nasal sprays, cough suppressants, and nasal rinses. Their allergies were treated with antihistamines and anti-inflammatory agents. In an effort to reduce the duration of their sinusitis episodes, a nose drop of tobramycin 80 mg/ml was administered. […] The medication was irritating; and in order to administer the drops and try to get them into the sinus cavity, the patient had to hold their head back. This caused intolerable pain resulting in the discontinuation of the therapy. A nose drop of Bactoban® (Mupirocin calcium 2%) was tried. […] In order to eliminate the pain caused by holding their head back when administering nose drops, a nose drop of tobramycin was administered after the patient had been on oral antibiotics for a period of time.

paranasal sinusitis = details: 4 ml of 3% FOM solution; ultrasonic-type nebulizer compared with jet-type; cited from earlier work
[1] = tested on: clinical isolates from sinusitis patients; details: one percent (1%) solution used with a nebulizer; cited from earlier work
[2] = Patient A, second 7 day regimen of nebulized tobramycin

Compound: NC[C@H]1O[C@H](O[C@H]2[C@H](O)[C@@H](O[C@H]3O[C@H](CO)[C@@H](O)[C@H](N)[C@H]3O)[C@H](N)C[C@@H]2N)[C@H](N)C[C@@H]1O [tobramycin, Tobramycin]
- relapse after first seven day regimen (sinus infection; Patient A, first 7 day regimen of nebulized tobramycin): relapse was experienced within a month
- time to "dumping" of green, purulent nasal discharge (sinus infection; Patient A): four
- outcome after second seven day regimen (sinus infection; [2]): sinus infection seemed to be eliminated
- time to recurrence after second seven day regimen (sinus infection; [2]): ≤ 2 months
- outcome after first seven day regimen (sinus infection; Patient A, tobramycin 80 mg/ml, 3 ml nebulized three times daily, 7 days): sinus infection had been eliminated
- benefit of addition to saline aerosol (refractory sinusitis): minimal benefit
- efficacy of nose drop (sinusitis; Patient A): did not seem to work
- efficacy of nose drop given after oral antibiotics (sinusitis; Patient A, nose drop after a period on oral antibiotics): did not seem to work
- tolerability of nose drop (sinusitis; human, in vivo): irritating

Compound: C/C(=C\C(=O)OCCCCCCCCC(=O)[O-])C[C@@H]1OC[C@H](C[C@@H]2O[C@H]2[C@@H](C)[C@H](C)O)[C@@H](O)[C@H]1O.C/C(=C\C(=O)OCCCCCCCCC(=O)[O-])C[C@@H]1OC[C@H](C[C@@H]2O[C@H]2[C@@H](C)[C@H](C)O)[C@@H](O)[C@H]1O.O.O.[Ca+2] [Bactoban, Mupirocin calcium]
- efficacy of nose drop (sinusitis; Patient A): not efficacious

Compound: C[C@@H]1O[C@@H]1P(=O)(O)O [FOM, fosfomycin]
- delivery to maxillary sinus surface, ultrasonic-type vs jet-type nebulizer (paranasal sinusitis): higher concentration of FOM to the maxillary sinus surface

Compound: CO/N=C(\C(=O)N[C@@H]1C(=O)N2C(C(=O)O)=C(CSc3nnnn3C)CS[C@H]12)c1csc(N)n1 [cefmenoxime]
- minimum inhibitory concentrations [1]: minimum inhibitory concentrations were lower

Compound: CO/N=C(\C(=O)N[C@@H]1C(=O)N2C(C(=O)O)=C(COC(N)=O)CS[C@H]12)c1ccco1 [cefuroxime, Cefuroxime]
- adverse event during nebulized therapy (sinus infection; Patient A, 285 mg in 2.5 ml nebulized three times daily, 7 days): contracted a yeast infection
- time free of sinus infections after treatment (sinus infection; Patient A, 285 mg in 2.5 ml nebulized three times daily, 7 days, Pari Turbo compressor): 9 months
- time to "dumping" of green, purulent nasal discharge (sinus infection; Patient A): 3 days
- number of treatments until "dumping" of green, purulent nasal discharge (sinus infection; Patient B, 285 mg in 2.5 ml nebulized three times daily): 8 treatments
- time free from sinus infections after treatment (sinus infection; Patient B, 285 mg in 2.5 ml nebulized three times daily, 7 days): 6 months
- number of treatments until "dumping" of green, purulent nasal discharge (sinus infection; Patient C, 285 mg in 2.5 ml nebulized three times daily): 8 treatments
- time free from sinus infections after treatment (sinus infection; Patient C, 285 mg in 2.5 ml nebulized three times daily, 7 days): 6 months
